“And” between values parts separate entries of the source, which are not always exact repeats. Equal values may be shown once. Read-outs that look alike come from different tables or passages of the source.
Legend:
[1] = Behavioral assay: opioid-induced analgesia, hot plate; format: in vivo, mouse; conditions: Table 9, enkephalin 20 mg/kg
Method: Morphine and the naturally occurring opioid peptides, endorphin and enkephalin, bind to μ opioid receptors in the brain and suppress the sensation of pain. […] Mice are placed on a surface uniformly heated to 55° C. The time it takes for the mouse to respond to the heat stimulus by licking its front or hind paws is measured. […] The latency is expressed as % analgesia. [formula] The purpose of these experiments is to test the ability of putative BBB openers to shift the morphine dose response curve to lower doses and thus have analgesic activity when delivered peripherally.

blood-brain barrier [2] = conditions: in vivo; cited from earlier work
blood-brain barrier [3] = test: In vivo tracer experiment: brain uptake of ^3 H-sucrose and ^125 I-BSA after i.v. injection; set-up: species or system mouse; conditions: Example 11 text
Method: The test compound was delivered to a restrained, unanesthetized mouse (30-35 g) via the tail vein. […] Fifteen or sixty minutes after the injection, the animal, anesthetized with 2% Avertin, was perfused via venipuncture with phosphate buffered saline followed by fixative. The brain was removed immediately, the medulla, pons and hypothalamus excised and the remaining tissue homogenized by passsage through a 3 cc needle into a preweighed scintillation vial containing 1.5 ml Soluene (Packard). The vial was weighed to determine wet tissue weight. Ten ml of Inst-Gel (Packard) was added to each sample after overnight incubation at 75° C. The samples were counted for DPM by liquid scintillation spectrometry. Values are expressed as DPM/gm tissue. A minimum of four animals/group were used for each experiment. Data are expressed as the mean fold-increase which is derived by dividing the treatment value by the control value. Numbers in parenthesis represent the number of experiments carried out for the particular condition.

[4] = test system: bovine brain capillary endothelial cells; test: Transmonolayer (transendothelial cell) electrical resistance in the in vitro BBB model; conditions: for effect of phosphodiesterase inhibitors on resistance: FIG. 7, Rolipram or RO-20-1724 17.5 μM, by 30 minutes, no other cyclic AMP elevating agents; for activity at 0.01 µM / activity at 0.03 µM / activity at 0.1 µM / activity at 0.2 µM: Bos taurus, Endothelial cell, read-out: Resistance (% of control)
Method: The degree of tightness of tight junctions can be also assessed by transcellular electrical resistance measurements. For transendothelial cell resistance measurements, cells were grown on a porous solid support, e.g., a filter or membrane attached to a holding device in order adequately to suspend the cellular monolayer, such as the Costar Transwell apparatus or the ICN Cellogen. […] Cells were maintained in a growth medium or physiological saline, and calomel electrodes on each of the endothelial cells are connected by a saturated KCl - 3% agar bridge. Current is passed between two Ag--AgCl electrodes and the voltage measured with a Keithly multimeter. Resistance is calculated from the change in voltage across the monolayer induced when a short current pulse (10-100 μamp) is applied. The resistance of the filter or membrane alone is subtracted. The resistance, multiplied by the surface area of the filter or membrane, yields the resistance in ohms-cm^2.
Bovine brain capillary endothelial cells were grown on polycarbonate filters in a conditioned growth medium containing either 5% or 10% PDHS. In controls, the growth medium contained 5% PDHS (.quadrature.) or 10% PDHS. […]
Bovine brain endothelial cells were dissociated and plated on tissue culture dishes in 50% MEM/FCS - 50% ADCM. […]
Bovine brain microvascular endothelial cells were isolated and grown on permeable filters in the BBB in vitro model of the invention. Cells were maintained in astrocyte-derived conditioned medium, but were not treated with agents that elevate cyclic AMP levels in such cells.
Resistance was then measured at various times.
The medium containing these cyclic AMP elevating agents was removed, and the cells were washed with fresh growth medium.

blood-brain barrier [5] = test: Brain uptake of ^3 H-sucrose and ^125 I-BSA after intracarotid infusion; format: in vivo
Method: Staurosporine was administered by intracarotid infusion. The transport of ^3 H-sucrose and ^125 I-BSA was then determined. The data in Table 7 represent the amount of radioactivity remaining in the brain after infusion and washout. An average of 3-4 animals was used in each category.

[6] = test system: Type III cyclic GMP-noninhibitable phosphodiesterase; test: Inhibition of cyclic AMP phosphodiesterase of brain microvascular endothelial cells
bovine endothelial cells [7] = conditions: leaky tight junctions; cited from earlier work
bovine endothelial cells [8] = test: Transport across high resistance monolayers of bovine endothelial cells on filters; format: in vitro ADME; conditions: FIG. 3; compared to cell-free filters
Description: Still another means for assessing the tightness of junctions among endothelial cells in the blood-brain model of the invention is to compare the transport of a hydrophilic compound, e.g., sucrose, and a hydrophobic compound of similar size, e.g., chlorambucil, across filters with and without monolayered endothelial cells. When the transmonoloayer resistance is high, the transport of sucrose should be low compared to that of chlorambucil (or other hydrophobic compounds of similar size). Alternatively, when the resistance is high, the transport of sucrose should be much less (e.g., 50-fold or more) than across cell-free filters.

brain endothelial cells = test: Leukocyte binding to cultures of blood brain barrier endothelial cells; format: cell-based, bovine or human; conditions: Table 14; Jurkat T-cell; + TNFα; two values per cell
Method: When used to treat lymphocytes, the anti-β-1 hybridoma supernatant was used at a 1:2 dilution. The anti-α-4 antibody was purified by the manufacturer, and used at a 5 μg/ml concentration. The anti-β-2 was purified by the manufacturer, and used at 5 μg/ml. For treatment of lymphocytes, the lymphocytes were mixed with the above concentrations of antibody, and allowed to incubate on ice for a about 30 minutes prior to use. The cells were washed to remove unbound antibody, and resuspended in RPMI to a typical concentration of 10^7 cells/ml.
Bovine or human brain endothelial cells were maintained in accordance with the blood brain barrier model as described in the present specification. […]
In this manner, the endothelial cells were exposed to the agent on their ablumenal surface, as would be the typical situation during an inflammatory reaction in the brain. Immediately before the assay, the electrical resistance of the cultures was measured and the filters (supporting the endothelial cells) were washed at room temperature by dipping in three separate vats of D-MEM with 1% FBS and 20 mM Hepes (200 mls. each). […]
In the second method, the leukocytes were prelabeled with a radioactive tracer and the degree of binding was quantified by measuring the amount of radioactivity associated with the entire endothelial surface on the culture filter. […]

[9] = Table 7, Experiment 1, intracarotid infusion, 3-4 animals

CC(C)C[C@H](NC(=O)[C@H](Cc1ccccc1)NC(=O)CNC(=O)CNC(=O)[C@@H](N)Cc1ccc(O)cc1)C(=O)O [Enkephalin]
Percent Analgesia ([1]; Experiment 1): 2.8%
Percent Analgesia ([1]; Experiment 2): 6.4%
penetration into the brain / BBB crossing (blood-brain barrier [2]): does not penetrate significantly into the brain

OC[C@H]1O[C@@H](n2cnc3c(NC4CCCC4)ncnc32)[C@H](O)[C@@H]1O [CPA, cyclopentyladenosine]
increase of uptake by brain of small (sucrose) and large (BSA) molecules (blood-brain barrier [3]): ≤ 300%

CCCOc1ccccc1-c1nc2nn[nH]c2c(=O)[nH]1 [zaprinast]
effect of phosphodiesterase inhibitors on resistance [4]: ineffective

Nc1ncnc2c1nc(Sc1ccc(Cl)cc1)n2[C@@H]1O[C@@H]2COP(=O)(O)O[C@H]2[C@H]1O [cyclic AMP analogue, 8-(4-chlorophenylthio) cyclic AMP]
effect on transmonolayer electrical resistance ([4]; Example 1, FIG. 1, 250 μM, 5% PDHS): greatly increased transmonolayer electrical resistance

CN[C@@H]1C[C@H]2O[C@@](C)([C@@H]1OC)n1c3ccccc3c3c4c(c5c6ccccc6n2c5c31)C(=O)NC4 [Staurosporine]
radioactivity remaining in the brain, ^3 H-Sucrose (blood-brain barrier [5]): 8.7 × 10^3 DPM
radioactivity remaining in the brain, ^3 H-Sucrose (blood-brain barrier [5]; [9]): 24.3 × 10^3 DPM
radioactivity remaining in the brain, ^125 I-BSA (blood-brain barrier [5]; [9]): 835 DPM
radioactivity remaining in the brain, ^125 I-BSA (blood-brain barrier [5]; Table 7, Experiment 2, intracarotid infusion, 3-4 animals): 520 DPM
effect on entry of tracers into the brain (blood-brain barrier [5]; intracarotid infusion): enhanced entry into the brain of both small (sucrose) and large (BSA) molecules
activity at 0.01 µM ([4]; 1 h): 108%
activity at 0.03 µM ([4]; 1 h): 64%
activity at 0.1 µM ([4]; 1 h): 5.5%
activity at 0.01 µM ([4]; 2.5 h): 20%
activity at 0.03 µM ([4]; 2.5 h): 7.7%
activity at 0.1 µM ([4]; 2.5 h): 0%
activity at 0.01 µM ([4]; 24 h): 5.2%
activity at 0.03 µM ([4]; 24 h): 2.3%
activity at 0.1 µM ([4]; 24 h): 0%

COc1ccc(C2CNC(=O)C2)cc1OC1CCCC1 (stereo not drawn) [Rolipram]
effect of phosphodiesterase inhibitors on resistance [4]: substantially higher
inhibition of phosphodiesterase [6]: inhibited

N[C@@H](Cc1ccc(O)c(O)c1)C(=O)O [L-DOPA]
penetration into the brain / BBB crossing (blood-brain barrier [2]): can cross the BBB

C[C@H](Cc1ccccc1)Nc1ncnc2c1ncn2[C@@H]1O[C@H](CO)[C@@H](O)[C@H]1O [R-PIA, N^6 -(phenylisopropyl)-adenosine]
increase of uptake by brain of small (sucrose) and large (BSA) molecules (blood-brain barrier [3]): ≤ 300%

COC(=O)[C@@]1(O)C[C@H]2O[C@]1(C)n1c3ccccc3c3c4c(c5c6ccccc6n2c5c31)C(=O)NC4 [K252a]
reversibility of effect of protein kinase inhibitors [4]: reversible
effect of protein kinase inhibitors on resistance ([4]; 10-200 nM): markedly reduce the resistance
activity at 0.2 µM ([4]; 1 h): 79%
activity at 0.2 µM ([4]; 2.5 h): 25%
activity at 0.2 µM ([4]; 24 h): 24%

Cc1[nH]c(=O)c(C#N)cc1-c1ccncc1 [milrinone]
effect of phosphodiesterase inhibitors on resistance [4]: ineffective

OC[C@H]1O[C@@](CO)(O[C@H]2O[C@H](CO)[C@@H](O)[C@H](O)[C@H]2O)[C@@H](O)[C@@H]1O [sucrose]
difference in the rate of sucrose across filters with and without cells, previous models (bovine endothelial cells [7]): 3 to 5 fold
transport across filters with cells (bovine endothelial cells [8]): almost entirely prevented from leaking between the cells

C=C[C@@]1(C)CC(=O)[C@]2(O)[C@@]3(C)[C@@H](O)CCC(C)(C)[C@@H]3[C@H](O)[C@H](OC(C)=O)[C@@]2(C)O1 [Forskolin, forskolin]
enhancement of transmonolayer electrical resistance ([4]; brain capillary endothelial cells): over 8 fold

TNFα
lymphocyte binding, Count per Minute (brain endothelial cells): 1430 Count per Minute and 1150 Count per Minute

CCCCOc1cc(CC2CNC(=O)N2)ccc1OC (stereo not drawn) [RO-20-1724]
effect of phosphodiesterase inhibitors on resistance [4]: substantially higher
inhibition of phosphodiesterase [6]: inhibited

— patent publication US5260210A, “Blood-brain barrier model” (priority 1990, dated 1993)
